Assay results taken from PubChem BioAssay (NCI).
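A five-concentration, 48-hour dose response in 96-well plates underlies each endpoint, interpolated linearly between surrounding concentrations. GI50: concentration for 50% inhibition of growth. TGI: total growth inhibition.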

Assays:
Experiment in all cases: inhibition of tumour cell growth, NCI panel, 48 h
[1] = test system: SK-MEL-28 melanoma
[2] = test system: COLO 205 colon
[3] = test system: LXFL 529 NSCLC
[4] = test system: SNB-75 CNS
[5] = test system: SW-620 colon
[6] = test system: K-562 leukemia
[7] = test system: IGROV1 ovarian
[8] = test system: UO-31 renal
[9] = test system: LOX IMVI melanoma
[10] = test system: UACC-62 melanoma
[11] = test system: M14 melanoma
[12] = test system: RXF 393 renal
[13] = test system: TK-10 renal
[14] = test system: NCI-H23 lung
[15] = test system: HCT-15 colon
[16] = test system: OVCAR-4 ovarian
[17] = test system: MALME-3M melanoma
[18] = test system: SN12C renal
[19] = test system: CAKI-1 renal
[20] = test system: RPMI-8226 leukemia
[21] = test system: NCI-H226 lung
[22] = test system: DLD-1 colon
[23] = test system: EKVX NSCLC
[24] = test system: ACHN renal
[25] = test system: HCC-2998 colon
[26] = test system: HCT-116 colon
[27] = test system: A498 renal
[28] = test system: U251 CNS
[29] = test system: CCRF-CEM leukemia
[30] = test system: HT29 colon
[31] = test system: SK-OV-3 ovarian
[32] = test system: OVCAR-8 ovarian
[33] = test system: NCI-H460 lung
[34] = test system: KM12 colon
[35] = test system: 786-0 renal
[36] = test system: SNB-78 CNS
[37] = test system: A549 NSCLC
[38] = test system: SF-268 CNS
[39] = test system: KM20L2 colon
[40] = test system: HOP-92 NSCLC
[41] = test system: SK-MEL-2 melanoma
[42] = test system: HOP-18 NSCLC
[43] = test system: SNB-19 CNS
[44] = test system: NCI-H522 lung
[45] = test system: OVCAR-5 ovarian
[46] = test system: UACC-257 melanoma
[47] = test system: DMS 273 small cell lung

O=c1c(O)c(O)c1=O.[NH2-].[NH2-].[NH2-].[NH2-].[NH2-].[Ru+5]
GI50 [1]: > 100 µM | TGI [1]: > 100 µM | GI50 [2]: > 100 µM | TGI [2]: > 100 µM | GI50 [3]: > 100 µM | TGI [3]: > 100 µM | GI50 [4]: > 100 µM | TGI [4]: > 100 µM | GI50 [5]: > 100 µM | TGI [5]: > 100 µM | GI50 [6]: > 100 µM | TGI [6]: > 100 µM | GI50 [7]: > 100 µM | TGI [7]: > 100 µM | GI50 [8]: > 100 µM | TGI [8]: > 100 µM | GI50 [9]: > 100 µM | TGI [9]: > 100 µM | GI50 [10]: > 100 µM | TGI [10]: > 100 µM | GI50 [11]: > 100 µM | TGI [11]: > 100 µM | GI50 [12]: > 100 µM | TGI [12]: > 100 µM | GI50 [13]: > 100 µM | TGI [13]: > 100 µM | GI50 [14]: > 100 µM | TGI [14]: > 100 µM | GI50 [15]: > 100 µM | TGI [15]: > 100 µM | GI50 [16]: > 100 µM | TGI [16]: > 100 µM | GI50 [17]: > 100 µM | TGI [17]: > 100 µM | GI50 [18]: > 100 µM | TGI [18]: > 100 µM | GI50 [19]: > 100 µM | TGI [19]: > 100 µM | GI50 [20]: > 100 µM | TGI [20]: > 100 µM | GI50 [21]: > 100 µM | TGI [21]: > 100 µM | GI50 [22]: > 100 µM | TGI [22]: > 100 µM | GI50 [23]: > 100 µM | TGI [23]: > 100 µM | GI50 [24]: > 100 µM | TGI [24]: > 100 µM | GI50 [25]: > 100 µM | TGI [25]: > 100 µM | GI50 [26]: > 100 µM | TGI [26]: > 100 µM | GI50 [27]: > 100 µM | TGI [27]: > 100 µM | GI50 [28]: > 100 µM | TGI [28]: > 100 µM | GI50 [29]: > 100 µM | TGI [29]: > 100 µM | GI50 [30]: > 100 µM | TGI [30]: > 100 µM | GI50 [31]: > 100 µM | TGI [31]: > 100 µM | GI50 [32]: > 100 µM | TGI [32]: > 100 µM | GI50 [33]: > 100 µM | TGI [33]: > 100 µM | GI50 [34]: > 100 µM | TGI [34]: > 100 µM | GI50 [35]: > 100 µM | TGI [35]: > 100 µM | GI50 [36]: > 100 µM | TGI [36]: > 100 µM | GI50 [37]: > 100 µM | TGI [37]: > 100 µM | GI50 [38]: > 100 µM | TGI [38]: > 100 µM | GI50 [39]: > 100 µM | TGI [39]: > 100 µM | GI50 [40]: > 100 µM | TGI [40]: > 100 µM | GI50 [41]: > 100 µM | TGI [41]: > 100 µM | GI50 [42]: > 100 µM | TGI [42]: > 100 µM | GI50 [43]: > 100 µM | TGI [43]: > 100 µM | GI50 [44]: > 100 µM | TGI [44]: > 100 µM | GI50 [45]: > 100 µM | TGI [45]: > 100 µM | GI50 [46]: > 100 µM | TGI [46]: > 100 µM | GI50 [47]: > 100 µM | TGI [47]: > 100 µM
